Data reported in paper PMC7306898, “Concentration-Dependent Activity of Hydromethylthionine on Clinical Decline and Brain Atrophy in a Randomized Controlled Trial in Behavioral Variant Frontotemporal Dementia” (Journal of Alzheimer's Disease, 2020).

How the values were obtained:
Type in all cases: in vivo, human
[1] = system: bvFTD patients; test: Functional Activities Questionnaire (FAQ), 52-week Phase III trial
Description: (§1) The study was designed as a 52-week Phase III, randomized, controlled, double-blind, parallel-group trial conducted between May 2013 and February 2016 at 70 sites in Canada, United States, Australia, Asia, and Europe. Eligible patients had to be younger than 80 years of age with a diagnosis of bvFTD according to criteria revised by the International bvFTD Criteria Consortium [[1, 50]], with Mini-Mental Status Examination (MMSE) score greater than or equal to 20 at screening. In order to limit inclusion of bvFTD phenocopy cases, there was an additional requirement that patients had to meet the criterion of having definite brain atrophy in frontal and/or temporal lobes scoring 2 or more on a scale previously developed by Kipps et al.. Concomitant use of acetylcholinesterase inhibitors (AChEIs) or memantine (or both) was permitted provided this was at a stable dose for at least 18 weeks before randomization to minimize any potential early symptomatic effects of these treatments. Concomitant use of antidepressant, antipsychotic (except clozapine or olanzapine), and sedative medications was also permitted at stable doses where clinically feasible. Each patient had one or more study partners participate with them in the trial as informants. […] A detailed list of inclusion and exclusion criteria is in the protocol provided in the Supplementary Material. […]
(§2) The two doses were provided in identical blister packages as visually identical oral tablets to be taken for up to 52 weeks. […] Other outcomes included: Modified Alzheimer’s Disease Cooperative Study – Clinical Global Impression of Change (Modified-CGIC) determined by a third independent rater; Frontotemporal Dementia Rating Scale (FRS); MMSE (from MMSE items incorporated into ACE-R); Addenbrookes Cognitive Examination – III (a revised version of ACE-R which excludes MMSE items subject to copyright restrictions); change in brain volume measured by MRI in frontal and temporal lobes (FTV) and lateral ventricles (LVV); and the effect of hydromethylthionine in patients with known genetic mutations associated with bvFTD. […]

[2] = system: bvFTD patients; test: Addenbrookes Cognitive Examination – III (ACE-III), 52-week Phase III trial
Description: The two doses were provided in identical blister packages as visually identical oral tablets to be taken for up to 52 weeks. The primary outcome was the Addenbrookes Cognitive Examination – Revised (ACE-R). The Functional Activities Questionnaire (FAQ) and reduction in progression of whole brain atrophy were alternative co-primary outcomes. Other outcomes included: Modified Alzheimer’s Disease Cooperative Study – Clinical Global Impression of Change (Modified-CGIC) determined by a third independent rater; Frontotemporal Dementia Rating Scale (FRS); MMSE (from MMSE items incorporated into ACE-R); Addenbrookes Cognitive Examination – III (a revised version of ACE-R which excludes MMSE items subject to copyright restrictions); change in brain volume measured by MRI in frontal and temporal lobes (FTV) and lateral ventricles (LVV); and the effect of hydromethylthionine in patients with known genetic mutations associated with bvFTD. Blood was collected prospectively for the purpose of population PK analyses.
The primary analyses were specified as a mixed model, repeated-measures analysis with an unstructured covariance matrix and no imputation for missing data. […]

[3] = system: bvFTD patients; test: Addenbrookes Cognitive Examination – Revised (ACE-R), 52-week Phase III trial TRx-237-007
Description: as §1, §2

[4] = 8 mg/day (n = 110), modeled change from baseline at 52 weeks, MITT
[5] = 8 mg/day, plasma levels above vs below […] threshold
[6] = 200 mg/day (n = 104) vs 8 mg/day, 52 weeks, MITT

Structure (SMILES): CN(C)c1ccc2c(c1)Sc1cc(N(C)C)ccc1N2 [hydromethylthionine, leuco-methylthioninium bis(hydromethanesulphonate)]
- FAQ: Decline±SEM for LMTM 8 mg/day group [1, 4]: 5.51±0.55
- reduction in decline on the FAQ scale [1, 5]: 46%
- FAQ: Difference±SEM from LMTM 8 mg/day for 200 mg/day [1, 6]: –0.39±0.84
- ACE-III: Decline±SEM for LMTM 8 mg/day group ([2]; 8 mg/day (n = 110), modeled change from baseline at 52 weeks): –10.70±1.55
- ACE-III: Difference±SEM from LMTM 8 mg/day for 200 mg/day ([2]; 200 mg/day (n = 104) vs 8 mg/day, 52 weeks): 0.44±2.27
- ACE-R: Decline±SEM for LMTM 8 mg/day group [3, 4]: –9.98±1.39
- reduction in decline on the ACE-R scale [3, 5]: 45%
- ACE-R: Difference±SEM from LMTM 8 mg/day for 200 mg/day [3, 6]: –0.49±2.10
